Drawing on patent publication EP3807270B1, “NOVEL HETEROARYL HETEROCYCLYL COMPOUNDS FOR THE TREATMENT OF AUTOIMMUNE DISEASE” (F. Hoffmann-La Roche AG, priority 2018, dated 2019), this text covers IC50 for 30 compounds.

Molecules are shown by their SMILES. pIC50: −log10 of the molar value.

The target of the assay is T1, human TLR8 (Homo sapiens, UniProt Q9NR97).
T1 construct: host or cells: HEK293 (HEK-Blue)
T1 sequence (Q9NR97 27-1041): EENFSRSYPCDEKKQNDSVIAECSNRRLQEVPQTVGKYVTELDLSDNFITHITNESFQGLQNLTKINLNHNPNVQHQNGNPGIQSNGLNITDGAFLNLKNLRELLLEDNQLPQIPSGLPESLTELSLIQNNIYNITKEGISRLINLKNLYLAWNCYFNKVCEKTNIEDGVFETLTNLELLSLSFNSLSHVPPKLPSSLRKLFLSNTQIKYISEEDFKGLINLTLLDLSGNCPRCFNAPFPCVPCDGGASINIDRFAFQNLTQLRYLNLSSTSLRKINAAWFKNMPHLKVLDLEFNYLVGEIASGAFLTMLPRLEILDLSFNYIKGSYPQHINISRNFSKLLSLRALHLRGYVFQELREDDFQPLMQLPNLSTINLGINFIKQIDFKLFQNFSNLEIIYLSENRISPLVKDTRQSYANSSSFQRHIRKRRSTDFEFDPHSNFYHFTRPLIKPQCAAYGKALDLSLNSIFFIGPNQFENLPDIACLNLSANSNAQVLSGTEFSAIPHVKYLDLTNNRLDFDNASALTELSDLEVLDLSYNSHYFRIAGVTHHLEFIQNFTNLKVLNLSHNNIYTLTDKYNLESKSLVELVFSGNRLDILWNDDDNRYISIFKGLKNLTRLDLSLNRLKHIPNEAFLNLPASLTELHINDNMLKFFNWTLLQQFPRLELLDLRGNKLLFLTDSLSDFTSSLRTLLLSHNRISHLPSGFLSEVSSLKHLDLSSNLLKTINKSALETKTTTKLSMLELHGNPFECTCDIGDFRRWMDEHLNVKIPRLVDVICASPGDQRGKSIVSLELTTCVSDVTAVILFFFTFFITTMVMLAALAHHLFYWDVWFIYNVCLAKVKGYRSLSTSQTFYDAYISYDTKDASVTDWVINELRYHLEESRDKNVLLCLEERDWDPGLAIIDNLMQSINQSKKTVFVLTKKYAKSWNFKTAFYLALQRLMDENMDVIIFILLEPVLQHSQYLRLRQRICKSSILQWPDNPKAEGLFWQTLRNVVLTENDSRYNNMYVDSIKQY
Briefly: HEK293-Blue-hTLR-8 cells assay (SEAP reporter, R848 stimulation). Type of assay: cell-based. To be noted: HEK293-Blue-hTLR8 cells, R848, 20 hrs; read-out: HEK/hTLR8 IC50. The source says: A stable HEK293-Blue-hTLR-8 cell line was purchased from InvivoGen (Cat.#: hkb-htlr8, San Diego, California, USA). These cells were originally designed for studying the stimulation of human TLR8 by monitoring the activation of NF-κB. A SEAP (secreted embryonic alkaline phosphatase) reporter gene was placed under the control of the IFN-β minimal promoter fused to five NF-κB and AP-1-binding sites. The SEAP was induced by activating NF-κB and AP-1 via stimulating HEK-Blue hTLR8 cells with TLR8 ligands. Therefore, the reporter expression was declined by TLR8 antagonist under the stimulation of a ligand, such as R848, for incubation of 20 hrs. The cell culture supernatant SEAP reporter activity was determined using QUANTI-Blue™ kit (Cat.#: rep-qb1, Invivogen, San Diego, Ca, USA) at a wavelength of 640 nm, a detection medium that turns purple or blue in the presence of alkaline phosphatase.
HEK293-Blue-hTLR8 cells were incubated at a density of 250,000-450,000 cells/mL in a volume of 170 µL in a 96-well plate in Dulbecco's Modified Eagle's medium (DMEM) containing 4.5 g/L glucose, 50 U/mL penicillin, […], […], 2 mM L-glutamine, 10% (v/v) heat-inactivated fetal bovine serum with addition of 20 µL test compound in a serial dilution in the presence of final DMSO at 1% and 10 µL of 60uM R848 in above DMEM, perform incubation under 37 °C in a CO2 incubator for 20 hrs. Then 20 µL of the supernatant from each well was incubated with 180 µL Quanti-blue substrate solution at 37°C for 2 hrs and the absorbance was read at 620-655 nm using a spectrophotometer. The signaling pathway that TLR8 activation leads to downstream NF-κB activation has been widely accepted, and therefore similar reporter assay was modified for evaluating TLR8 antagonist.

Turning to `C[C@@H]1CN(c2ccc(C#N)c3ncccc23)C[C@H](CN2CCN(c3ccc4c(n3)CCNC4)C[C@H](O)C2)O1` (single isomer, unassigned) [Example 35A], the pIC50 is 7.62.

As for `C[C@@H]1CN(c2ccc(C#N)c3ncccc23)C[C@H](CN2CCN(c3ccc4c(n3)CCNC4)C[C@@H](O)C2)O1` (single isomer, unassigned) [Example 35B], the pIC50 was 7.64.

Regarding `C[C@@H]1CN(c2ccc(C#N)c3ncccc23)C[C@H](CN2C[C@H]3CN(c4ccc5c(n4)CCNC5)CC[C@@H]32)O1` (single isomer, unassigned) [Example 54], the pIC50 is 7.66.

For the compound `C[C@@H]1CN(c2ccc(C#N)c3ncccc23)C[C@H](CN2C[C@H]3CN(c4ccc5c(n4)CCNC5)CC[C@H]32)O1` (single isomer, unassigned) [Example 55], the pIC50 was 7.80.

As for `C[C@@H]1CN(c2ccc(C#N)c3ncccc23)C[C@H](CN2CCN(c3ccc4c(n3)CN[C@H]4C)CC2)O1` (single isomer, unassigned) [Example 63], the pIC50 was 8.52.

Take `C[C@@H]1CN(c2ccc(C#N)c3ncccc23)C[C@H](CN2CCN(c3ccc4c(n3)CN[C@@H]4C)CC2)O1` (single isomer, unassigned) [Example 64]: the pIC50 is 8.22.

`C[C@@H]1CN(c2ccc(C#N)c3ncccc23)C[C@H](CN2CCN(c3ccc4c(n3)[C@@H](C)NC4)CC2)O1` (single isomer, unassigned) [Example 65]: the pIC50 was 8.05.

With `C[C@@H]1CN(c2ccc(C#N)c3ncccc23)C[C@H](CN2CCN(c3ccc4c(n3)[C@H](C)NC4)CC2)O1` (single isomer, unassigned) [Example 66], the pIC50 was 8.05.

Turning to `C[C@@H]1CN(c2ccc(C#N)c3ncccc23)C[C@H](CN2CCN(c3cnc4c(c3)CN[C@H]4C)CC2)O1` (single isomer, unassigned) [Example 67], the pIC50 is 7.70.

Regarding `C[C@@H]1CN(c2ccc(C#N)c3ncccc23)C[C@H](CN2CCN(c3cnc4c(c3)CN[C@@H]4C)CC2)O1` (single isomer, unassigned) [Example 68], the pIC50 is 7.80.

For the compound `C[C@@H]1Cc2cc(N3CCN(C[C@H]4CN(c5ccc(C#N)c6ncccc56)C[C@@H](C)O4)CC3)ncc2CN1` (single isomer, unassigned) [Example 70], the pIC50 is 8.40.

For the compound `C[C@@H]1CN(c2ccc(C#N)c3ncccc23)C[C@H](CN2CCN(c3cc4c(cn3)CN[C@@H](C)C4)CC2)O1` (single isomer, unassigned) [Example 71], the pIC50 is 8.40.

`C[C@@H]1CN(c2ccc(C#N)c3ncccc23)C[C@H](CN2CCN(c3cc4c(cn3)[C@H](C)NCC4)CC2)O1` (single isomer, unassigned) [Example 72]: the pIC50 was 8.30.

Turning to `C[C@@H]1CN(c2ccc(C#N)c3ncccc23)C[C@H](CN2CCN(c3cc4c(cn3)[C@@H](C)NCC4)CC2)O1` (single isomer, unassigned) [Example 73], the pIC50 was 8.15.

Turning to `C[C@@H]1CN(c2ccc(C#N)c3ncccc23)C[C@H](CN2CCN(c3cc4c(cn3)CCN[C@@H]4C)CC2)O1` (single isomer, unassigned) [Example 74], the pIC50 is 8.40.

With `C[C@@H]1CN(c2ccc(C#N)c3ncccc23)C[C@H](CN2CCN(c3cc4c(cn3)CCN[C@H]4C)CC2)O1` (single isomer, unassigned) [Example 75], the pIC50 was 8.40.

Regarding `C[C@@H]1CN(c2ccc(C#N)c3ncccc23)C[C@H](CN2CCN(c3cc4c(cn3)C[C@H](C)NC4)CC2)O1` (single isomer, unassigned) [Example 76], the pIC50 was 8.30.

Take `C[C@@H]1Cc2cnc(N3CCN(C[C@H]4CN(c5ccc(C#N)c6ncccc56)C[C@@H](C)O4)CC3)cc2CN1` (single isomer, unassigned) [Example 77]: the pIC50 was 8.15.

In the case of `C[C@@H]1CN(c2ccc(C#N)c3nccnc23)C[C@H](CN2CCN(c3ccc4c(n3)CN[C@H]4C)CC2)O1` (single isomer, unassigned) [Example 78], the pIC50 was 8.70.

As for `C[C@@H]1CN(c2ccc(C#N)c3nccnc23)C[C@H](CN2CCN(c3ccc4c(n3)CN[C@@H]4C)CC2)O1` (single isomer, unassigned) [Example 79], the pIC50 is 8.70.

Regarding `C[C@@H]1CN(c2ccc(C#N)c3nccnc23)C[C@H](CN2CCN(c3cc4c(cn3)C[C@H](C)NC4)CC2)O1` (single isomer, unassigned) [Example 81], the pIC50 is 8.52.

As to `C[C@@H]1Cc2cnc(N3CCN(C[C@H]4CN(c5ccc(C#N)c6nccnc56)C[C@@H](C)O4)CC3)cc2CN1` (single isomer, unassigned) [Example 82], the pIC50 is 8.52.

Turning to `C[C@@H]1Cc2cc(N3CCN(C[C@H]4CN(c5ccc(C#N)c6nccnc56)C[C@@H](C)O4)CC3)ncc2CN1` (single isomer, unassigned) [Example 83], the pIC50 was 8.70.

Consider `C[C@@H]1CN(c2ccc(C#N)c3nccnc23)C[C@H](CN2CCN(c3cc4c(cn3)CN[C@@H](C)C4)CC2)O1` (single isomer, unassigned) [Example 84], for which the pIC50 was 8.70.

`C[C@@H]1CN(c2ccc(C#N)c3nccnc23)C[C@H](CN2CCN(c3cc4c(cn3)[C@H](C)NCC4)CC2)O1` (single isomer, unassigned) [Example 85]: the pIC50 is 8.70.

As for `C[C@@H]1CN(c2ccc(C#N)c3ncccc23)C[C@H](CN2CC3[C@H](C2)OCCN3c2ccc3c(n2)CCNC3)O1` (stereo in doubt) [Example 53, cis-5-[(2R,6S)-2-methyl-6-[[4-(5,6,7,8-tetrahydro-1,6-naphthyridin-2-yl)-2,3,4a,5,7,7a-hexahydropyrrolo[3,4-b][1,4]oxazin-6-yl]methyl]morpholin-4-yl]quinoline-8-carbonitrile], the pIC50 was 7.68.

As for `C[C@@H]1CN(c2ccc(C#N)c3ncccc23)C[C@H](CN2CCN(c3cccc4c3CNC4)CC2)O1` [Example 2, 5-[(2S,6R)-2-[(4-isoindolin-4-ylpiperazin-1-yl)methyl]-6-methyl-morpholin-4-yl] quinoline-8-carbonitrile], the pIC50 was 8.10.

In the case of `C[C@@H]1CN(c2ccc(C#N)c3ncccc23)C[C@H](CN2CCN(c3ccc4c(c3)CNC4)[C@@H](CO)C2)O1` [Example 4, 5-[(2S,6R)-2-[[(3R)-3-(hydroxymethyl)-4-isoindolin-5-yl-piperazin-1-yl]methyl]-6-methyl-morpholin-4-yl]quinoline-8-carbonitrile], the pIC50 is 7.57.

As to `C[C@@H]1CN(c2ccc(C#N)c3ncccc23)C[C@H](CN2CCN(c3ccc4c(c3)CCNC4)CC2)O1` [Example 5, 5-[(2R,6S)-2-methyl-6-[[4-(1,2,3,4-tetrahydroisoquinolin-6-yl)piperazin-1-yl]methyl]morpholin-4-yl]quinoline-8-carbonitrile], the pIC50 is 7.70.

`C[C@@H]1CN(c2ccc(C#N)c3ncccc23)C[C@H](CN2CCN(c3ccc4c(c3)CNC4)CC2)O1` [Example 7, 5-[(2S,6R)-2-[(4-isoindolin-5-ylpiperazin-1-yl)methyl]-6-methyl-morpholin-4-yl] quinoline-8-carbonitrile]: the pIC50 is 7.52.
